Results: PubChem BioAssay (NCI)
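The compound was tested at five concentrations on cells cultured in 96-well plates, with a 48-hour exposure period. The concentration for 50% growth inhibition is given as GI50. TGI marks complete inhibition of growth.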

Legend:
Assay in all cases: DTP human tumour cell line panel, 48 h
[1] = system: IGROV1 ovarian
[2] = system: SNB-19 CNS
[3] = system: SK-MEL-2 melanoma
[4] = system: SF-295 CNS
[5] = system: A549 NSCLC
[6] = system: HOP-92 NSCLC
[7] = system: SF-268 CNS
[8] = system: MOLT-4 leukemia
[9] = system: MDA-MB-231 breast
[10] = system: HT29 colon

Row | SMILES | GI50 [1] [µM] | TGI [1] [µM] | GI50 [2] [µM] | TGI [2] [µM] | GI50 [3] [µM] | TGI [3] [µM] | GI50 [4] [µM] | TGI [4] [µM] | GI50 [5] [µM] | TGI [5] [µM] | GI50 [6] [µM] | TGI [6] [µM] | GI50 [7] [µM] | TGI [7] [µM] | GI50 [8] [µM] | TGI [8] [µM] | GI50 [9] [µM] | TGI [9] [µM] | GI50 [10] [µM] | TGI [10] [µM]
1 | Cn1ccnc1C(=O)/C=C/c1ccc(C(=O)Nc2ccc(S(F)(F)(F)(F)F)cc2)cc1 | 3.08 | > 14.3 | 2.34 | > 14.3 | > 14.3 | > 14.3 | 1.62 | > 14.3 | 3.81 | > 14.3 | 3.03 | > 14.3 | 3.09 | > 14.3 | 1.72 | 10.1 | 2.33 | > 14.3 | 1.88 | > 14.3
2 | CC(=O)N1N=C(c2ccc(Nc3nc(Nc4ccc(Cl)cc4)nc(Nc4ccc(Cl)cc4)n3)cc2)CC1c1ccc([N+](=O)[O-])cc1 (centres undefined) | 6.51 | > 65.6 | 3.8 | 38.7 | 5.38 | > 45.6 | 1.87 | 13.6 | 5.57 | > 86.5 | 5.18 | 54.7 | 7.14 | > 100 | 1.92 | 8.35 | 10.2 | > 92 | 4.74 | > 95
3 | CCOc1ccc(-c2cnnn2-c2nonc2-n2cccc2)cc1 | 0.581 | > 100 | 0.729 | > 100 | 0.308 | > 100 | 0.295 | > 91.2 | 0.388 | > 100 | 0.401 | 9.27 | 0.736 | > 100 | 0.51 | 31.7 | 0.337 | 5.03 | 0.22 | 4.54
4 | CCOC(=O)c1sc2ncn(Cc3cccc(Br)c3)c(=O)c2c1C | 0.172 | > 100 | > 100 | > 100 | 17.7 | 81 | 64.9 | > 100 | 56.2 | > 100 | 31.1 | > 100 | 54.9 | > 100 | 25.3 | > 100 | 12.5 | 74.8 | 87.8 | > 100
5 | CCCCOc1ccc(NC(=O)n2nc(N)c3ccccc32)cc1 | 33 | > 100 | 52 | > 100 | 27.8 | 76 | 23.5 | 79.3 | 21.6 | > 87.9 | 17.7 | 54.1 | 20.3 | > 100 | 0.921 | 34.8 | 14 | 41.5 | 9.98 | 26
6 | COc1cc2c(cc1O)-c1c(cnn1-c1ccc([N+](=O)[O-])cc1)CCC2 | – | 18.7 | – | > 100 | – | 37.4 | – | 82.5 | – | 42.4 | – | > 100 | – | > 100 | – | 6.2 | – | 33.2 | – | 35.6
7 | COc1ccc2c(c1)=C(C=C1C=CN(O)C=C1)C(=O)N=2 | 16.2 | > 94.4 | 10.6 | 64.8 | 26.7 | 73.7 | 34.3 | > 93.8 | 29.8 | > 100 | 25.9 | > 100 | 28.1 | 93.2 | 31.2 | > 100 | 23.6 | > 100 | 17.1 | > 66.8
8 | Fc1ccc(-c2nn3c(-c4ccc(F)c(Cl)c4)nnc3s2)cc1 | 33.1 | > 50 | 20.1 | > 50 | > 50 | > 50 | 18.2 | > 50 | 21.2 | > 50 | 15.6 | > 50 | 38.7 | > 50 | 26.3 | > 50 | 30.5 | > 50 | 22.9 | > 50
9 | CC(C)(O)C#Cc1ccc(/C=C/C(=O)c2ccccc2)s1 | 14.7 | 27.8 | 16.9 | 31.7 | 17.6 | 33.9 | 17.7 | 35.5 | 16.5 | 30.5 | 13.6 | 27.1 | 16.7 | 32.8 | 16.8 | 43.6 | 16.7 | 32.3 | 13.5 | 29.9
10 | CCCc1cc(O)c2c3c(c(=O)oc2c1)CN(C)CC3 | > 100 | > 100 | > 100 | > 100 | > 100 | > 100 | 28.3 | > 100 | > 100 | > 100 | 15.7 | > 100 | > 100 | > 100 | 44.3 | > 100 | 35 | > 100 | 39.5 | > 100
11 | C#CCN(Cc1nc2cc(C(F)(F)F)ccc2nc1-c1ccccc1)c1ccc(OC(F)(F)F)cc1 | 34.8 | > 100 | > 100 | > 100 | > 100 | > 100 | > 100 | > 100 | 63.8 | > 100 | 18.5 | 77.3 | 47.5 | > 100 | 32.2 | > 100 | 28.4 | > 100 | 40.3 | > 100
12 | CCC[CH2][Sn]([CH2]CCC)([O]C(=O)c1cc(F)ccc1F)[O][Sn]([CH2]CCC)([CH2]CCC)[O]C(=O)c1cc(F)ccc1F | 1.03 | 2.33 | 0.667 | 1.76 | 0.18 | 0.496 | 0.606 | 1.85 | 1.77 | 3.68 | 0.148 | 0.491 | 0.216 | 0.798 | 0.111 | – | 0.436 | 1.63 | 0.899 | 2.21
